In the supplement of paper PMC4862054:

How the values were obtained:
Conditions in all cases: incubation time: 72 h
[1] = tested on: BT-474; assay: normalised response (% of control), CellTox Green; higher = less cell death (100 = DMSO, 0 = benzethonium chloride kill control)
In short: (§1)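 Two readouts were taken after 72 h: CellTox Green fluorescence (485/520 nm) first, then CellTiter-Glo luminescence after 10 min at room temperature. Breast cancer cell lines had been seeded as 20 µl suspension into 384-well plates holding compound at 5 concentrations in 10-fold steps across a compound-specific 10,000-fold range. Each value is a normalised signal at a single concentration, with plates scaled to 0.1 % DMSO (100) and a positive kill control (0).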

[2] = tested on: BT-549; assay: as above
In short: as §1

[3] = tested on: CAL-120; assay: as above
In short: as §1

[4] = tested on: CAL-148; assay: as above
In short: as §1

[5] = tested on: CAL-51; assay: as above
In short: as §1

[6] = tested on: CAL-85-1; assay: as above
In short: as §1

[7] = tested on: DU-4475; assay: as above
In short: as §1

[8] = tested on: HCC1143; assay: as above
In short: as §1

[9] = tested on: HCC1599; assay: as above
In short: as §1

[10] = tested on: HCC1937; assay: as above
In short: as §1

[11] = tested on: HDQ-P1; assay: as above
In short: as §1

[12] = tested on: Hs578T; assay: as above
In short: as §1

[13] = tested on: MCF-10A; assay: as above
In short: as §1

[14] = tested on: MDA-MB-231; assay: as above
In short: as §1

[15] = tested on: MDA-MB-436; assay: as above
In short: as §1

[16] = tested on: MDA-MB-453; assay: as above
In short: as §1

[17] = tested on: MDA-MB-468; assay: as above
In short: as §1

[18] = tested on: MFM-223; assay: as above
In short: as §1

[19] = tested on: BT-474; assay: normalised response (% of control), CellTiter-Glo; higher = more viable cells (100 = DMSO, 0 = benzethonium chloride kill control)
In short: as §1

[20] = tested on: BT-549; assay: as above
In short: as §1

[21] = tested on: CAL-120; assay: as above
In short: as §1

[22] = tested on: CAL-148; assay: as above
In short: as §1

[23] = tested on: CAL-51; assay: as above
In short: as §1

[24] = tested on: CAL-85-1; assay: as above
In short: as §1

[25] = tested on: DU-4475; assay: as above
In short: as §1

[26] = tested on: HCC1143; assay: as above
In short: as §1

[27] = tested on: HCC1599; assay: as above
In short: as §1

[28] = tested on: HCC1937; assay: as above
In short: as §1

[29] = tested on: HDQ-P1; assay: as above
In short: as §1

[30] = tested on: Hs578T; assay: as above
In short: as §1

[31] = tested on: MCF-10A; assay: as above
In short: as §1

[32] = tested on: MDA-MB-231; assay: as above
In short: as §1

[33] = tested on: MDA-MB-436; assay: as above
In short: as §1

[34] = tested on: MDA-MB-453; assay: as above
In short: as §1

[35] = tested on: MDA-MB-468; assay: as above
In short: as §1

[36] = tested on: MFM-223; assay: as above
In short: as §1

[37] = tested on: SK-BR-3; assay: as above
In short: as §1

SMILES	normalised response [1]	normalised response [2]	normalised response [3]	normalised response [4]	normalised response [5]	normalised response [6]	normalised response [7]	normalised response [8]	normalised response [9]	normalised response [10]	normalised response [11]	normalised response [12]	normalised response [13]	normalised response [14]	normalised response [15]	normalised response [16]	normalised response [17]	normalised response [18]	normalised response [19]	normalised response [20]	normalised response [21]	normalised response [22]	normalised response [23]	normalised response [24]	normalised response [25]	normalised response [26]	normalised response [27]	normalised response [28]	normalised response [29]	normalised response [30]	normalised response [31]	normalised response [32]	normalised response [33]	normalised response [34]	normalised response [35]	normalised response [36]	normalised response [37]
C[C@@H](C(=O)O)c1ccc(-c2ccccc2)c(F)c1 [Tarenflurbil] (100 nM)	93.2%	98.8%	103%	102%	92.8%	101%	98.1%	98.1%	99.3%	100%	93%	89.7%	61.1%	96.1%	72%	100%	101%	103%	101%	97.3%	98.3%	90.3%	91.1%	95%	101%	94.8%	106%	91.2%	95.2%	102%	91.7%	97.3%	97.9%	101%	96.4%	96.2%	91.6%
Cn1nnc2c(C(N)=O)ncn2c1=O [Temozolomide] (100 nM)	97.8%	101%	99.2%	100%	108%	107%	101%	96.3%	89.7%	82.5%	81.8%	89.4%	89.1%	110%	104%	105%	92.8%	102%	95.4%	106%	99.7%	98.8%	107%	93.6%	96.8%	101%	90.9%	88.2%	93.2%	103%	103%	101%	98.8%	102%	100%	104%	96.5%
CCc1c(C(=O)C(N)=O)c2c(OCC(=O)O)cccc2n1Cc1ccccc1 [Varespladib] (100 nM)	104%	99.1%	102%	102%	96.8%	99.3%	104%	92.1%	97%	83.1%	96%	99.9%	112%	104%	106%	105%	88.9%	91.1%	98%	100%	111%	103%	95.6%	98.5%	98.8%	103%	95.9%	102%	101%	104%	105%	103%	98.5%	97%	95.3%	102%	101%
